# Laboratory results taken from US20020183300A1, “Zinc ionophores as anti-stress agents” (priority 2001, published 2002).
# Tested on: Spl
# Assay: Spl electrophoretic mobility shift assay on brain nuclear extracts, coronary artery ligation model
# Type: in vivo, rat
# Details: rats subjected to coronary occlusion 45 min, reperfusion 4 h; ZnDDC 8.3 ng/kg i.v. at 0, 1, 2 h postreperfusion
# Experimental: (§1) Coronary artery ligation model Male Sprague-Dawley rats (250-300 g) were anesthetized, intubated and ventilated. The chest was opened and the coronary artery was ligated. After 45 min, the suture was released and reperfusion was continued for 4 h. Boluses (0.5 ml) of the zinc ionophores ZnP (1.2 μg/kg) and ZnDDC (8.3 ng/kg) were administered intravenously in 4% DMSO in saline at 0, 1, and 2 h postreperfusion. After 4 h of reperfusion the ligature was retied, and Evans blue dye was infused intravenously to demarcate the area at risk. The rats were then killed by exsanguination and the brain was collected for analysis. Sham-surgery rats were treated in an identical manner but without tying the ligature around the coronary artery.
# (§2) Brain samples were homogenized on ice using six slow strokes of a Teflon pestle homogenizer at 1000 rpm in 8 volumes of buffer containing 0.25 M sucrose, 10 mM HEPES, pH 7.6, 25 mM KCl, 1 mM EDTA, 10% glycerol, 0.15 mM spermine, and 0.5 mM spermidine. […] Protein concentrations were determined using the Bio Rad protein assay.
# (§3) Double-stranded consensus oligonucleotides for NF-kB and Spl (Promega, Madison, Wis.) were 5 radiolabelled with g[^32P]ATP (Amersham, Arlington Heights, Ill.). […] The intensity of the bands was quantitated with a densitometer and commercially available software (Molecular Analyst, Bio-Rad Laboratories, Hercules, Calif.).
row,Compound,Spl binding activity in the brain (in words)
1,"CCN(CC)C(=S)S [ZNDDC, zinc-diethyldithiocarbamate]",restored Spl binding activity to normal

# Tested on: NF-κB
# Assay: NF-κB electrophoretic mobility shift assay on brain nuclear extracts, coronary artery ligation model
# Type: in vivo, rat
# Details: rats subjected to coronary occlusion 45 min, reperfusion 4 h; i.v. boluses at 0, 1, 2 h postreperfusion; ZnP 1.2 μg/kg, ZnDDC 8.3 ng/kg
# Experimental: as §1, §2, §3
row,Compound,NF-κB binding activity in the brain
1,"CCN(CC)C(=S)S [ZNDDC, zinc-diethyldithiocarbamate]",restored normal NF-κB binding activity

# Tested on: cultured HUVEC, isolated cardiac myocytes, cultured cerebellar neurons
# Assay: Zinc ionophore screening with Fura-2 loaded cells (fluorescence ratio 340/380 nm)
# Type: cell-based, human; rabbit; mouse
# Details: not given
# Experimental: Human umbilical vein endothelial cells (HUVEC) were purchased from Clonetics (San Diego, Calif.) and passages DeKeyser F. G. et al. (2000) Neuroimmunomodulation 7:182-188; Revilla V. et al. Brain Res. Bull 49:413-418; Troullos E. et al. (1997) Clin. Pharmacol. Ther. 62:74-81 were used for these studies. Cells were cultured on flame-sterilzed glass coverslips in Endothelial Basal Medium (Clonetics) supplemented with 10 ng/ml human recombinant epidermal growth factor, 1.0 ug/ml hydrocortisone, 50 ug/ml gentamicin, 50ng/ml amphotetericin B, 12 ug/ml bovine brain extract and 2% v/v fetal bovine serum (all from Clonetics), in a humidified chamber at 37° C. and 5% CO2. To maintain cell populations, proliferating HUVEC were passaged at 80-90% confluency.
# Cardiac myocytes were isolated from the ventricular septum of adult rabbit hearts, following collagenase digestion, in a manner similar to that described previously (Turan, B. et al., (1997) Am. J. Physiol. 272:H2095-H2106). The modification consisted of introducing low concentrations of CaCl2 during the perfusion with collagenase and the dispersion of the myocytes. Hearts were perfused for about 2 min by gravity under a hydrostatic pressure of 1 m, with a nominally Ca^2+-free solution containing (in mM): NaCl, 145; KCl, 5; MgSO4, 1.2; Na2HPO4, 1.8; HEPES, 5; glucose, 10; pH adjusted to 7.4 with NaOH. Forty ml of this perfusate were then supplemented with collagenase (1 mg/ml) and perfusion was continued with recirculation. […] The flow rate was then adjusted to 15 ml/min and 50 μM CaCl2 was added to the collagenase solution. Perfusion with this solution was continued for another 15 to 18 min, followed by a 2 min washout of the enzyme with fresh perfusate containing 100 μM CaCl2 and no collagenase. The hearts were then removed from the apparatus and the ventricular septum isolated and minced. Dissociation of the cells was obtained by gentle agitation of the minced tissue in 50 ml of the same perfusing solution. Following filtration through a 200 μm nylon mesh, the cells were allowed to settle and the supernatant was replaced with a solution containing 2 mM CaCl2. Cells were kept at 37° C. in this pre-oxygenated solution and were studied within 8 hours after isolation, cellular viability was ensured by regularly replacing the incubation solution.
# Primary cultures of mouse cerebellar granule neurons were obtained from dissociated cerebella of postnatal day 8 or 9 mice according to the following protocol (Cregan et al., (1999) J. Neurosci. 19:7860-7869, incorporated herein by reference). Brains were removed and placed into separate dishes containing solution A (124 mM NaCl, 5.37 mM KCl, 1 mM NaH2 P04, 1.2 mM MgSO4, 14.5 mM D-(1)-glucose, 25 mM HEPES, 3 mg/ml BSA, pH 7.4) in which the cerebella were dissected, meninges removed, and tissue sliced into small pieces. The tissue was briefly centrifuged and transferred to solution A containing 0.25 mg/ml trypsin, then incubated at 37° C. for 18 min. After the addition of 0.082 mg/ml trypsin inhibitor (Boehringer Mannheim, Indianapolis, Ind.) and 0.25 mg/ml DNase I (Boehringer Mannheim), the tissue was incubated at 25° C. for 2 min. After a brief centrifugation, the resulting pellet was gently titrated in solution A yielding suspension that was further incubated for 10 min at 25° C. in solution A containing 2.7 mM MgSO4 and 0.03 mM CaCl2. After a final centrifugation the pellet was resuspended in EMEM media (Sigma, St. Louis, Mo.) containing 10% dialyzed FBS (Sigma), 25 mM KCl, 2 mM glutamine (Life Technologies BRL, Gaithersburg, Md.), 25 mM glucose, and 0.1 mg/ml gentamycin (Sigma) and filtered through a cell strainer (size 70 μm; Falcon). Cells were plated on glass coverslips coated with poly-D-lysine (Sigma) in Nunc fourwell dishes at a density of 1.5×10^6 cells per milliliter of medium. Cytosine-arabinoside (10 μM; Sigma) was added 24 hr after plating.
row,Compound,zinc-ionophore properties
1,"Oc1c(I)cc(I)c2cccnc12 [5,7-Diiodo-8-hydroxyquinoline]",possess zinc-ionophore properties
2,Oc1cccc2cccnc12 [8-Hydroxyquinoline],possess zinc-ionophore properties
3,"CC1=C(/C=C/C(C)=C/C=C/C(C)=C/CO)C(C)(C)CCC1 [Vitamin A (all-trans-retinol), all-trans-retinol]",possess zinc-ionophore properties
4,"Cc1c(C)c2c(c(C)c1O)CC[C@@](C)(CCC[C@H](C)CCC[C@H](C)CCCC(C)C)O2 [Vitamin E, alpha-tocopherol]",possess zinc-ionophore properties
5,"CCN(CC)C(=S)S [ZNDDC, zinc-diethyldithiocarbamate]",possess zinc-ionophore properties

# Same assay, conditions: HUVEC, cardiac myocytes, cerebellar neurons
row,Compound,ionophore activity compared across cell types
1,"Oc1c(I)cc(I)c2cccnc12 [5,7-Diiodo-8-hydroxyquinoline]",comparable in all three cell types tested
2,"CCN(CC)C(=S)S [ZNDDC, zinc-diethyldithiocarbamate]",comparable in all three cell types tested

# Same assay, conditions: zinc-complexed holo-ionophore, 1 μM in superfusion buffer, 37° C.
row,Compound,zinc ionophore activity (slope of Fura-2 fluorescence intensity ratio)
1,"Oc1c(I)cc(I)c2cccnc12 [5,7-Diiodo-8-hydroxyquinoline]","5,7-Diiodo-8-hydroxyquinoline ✓✓"
2,Oc1cccc2cccnc12 [8-Hydroxyquinoline],"8-Hydroxyquinoline, ✓"
3,CCN(CC)C(=S)SSC(=S)N(CC)CC [Disulfiram],Disulfiram ✓✓
4,COc1ccc2c(c1)c(CC(=O)O)c(C)n2C(=O)c1ccc(Cl)cc1 [Indomethacin],Indomethacin ✓
5,S=C(S)N1CCCC1 [Pyrrolidinedithiocarbamate],Pyrrolidinedithiocarbamate ✓✓
6,"CC1=C(/C=C/C(C)=C/C=C/C(C)=C/CO)C(C)(C)CCC1 [Vitamin A (all-trans-retinol), all-trans-retinol]",Vitamin A (all-trans-retinol) ✓
7,"CCN(CC)C(=S)S [ZNDDC, zinc-diethyldithiocarbamate]",diethyldithiocarbamate ✓✓
